Test: In vitro cytotoxicity tested as inhibitory concentration against carcinoma KB cell line
Type: functional, cell-based
Settings: Homo sapiens

In order of rising IC50:
1. O=P1(NCCCl)OCCC(O)N1CCCl (stereo not drawn) [ALDOIFOSFAMIDE]  10 µM
2. CO[C@H]1CCOP(=O)(NCCCl)N1CCCl (stereo partly drawn)  20 µM
3. CO[C@@H]1CCOP(=O)(NCCCl)N1CCCl (stereo partly drawn)  22 µM
